Each structure is given as a SMILES string. Calls of active or inactive are those of the source. No rule for the calls is given here. Bounds are passed on as bounds.

This note sets out measurements from PubChem BioAssay AID1159557 (GlaxoSmithKline (GSK), 2015).

The test system of the assay is Trypanosoma brucei growth inhibition. Nature of the assay: T. brucei growth inhibition (AID 1159557).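 Also: parasites exposed to compound for 48 h before the resazurin readout.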

Broadly, the IC50 is the midpoint of a concentration-inhibition curve. `CC(C)(C)C(Cn1ccnc1)NC(=O)c1ccc2nc(C3CC3)oc2c1` (centres undefined): the IC50 is > 40000 nM (inactive).
For `Cc1ccc(S(=O)(=O)Cn2nnnc2C(c2cccnc2)N2CCN(c3ccccc3)CC2)cc1` (centres undefined) the value was 32000 nM; for `CCN(CC)c1ncc(C(=O)c2ccc([N+](=O)[O-])o2)s1`, 100 nM; for `O=C1NCc2cccc(Nc3nc(NC4CCC(O)CC4)ncc3Br)c21` (centres undefined), 63 nM.
The figure for `CNc1c(C(N)=O)c(-c2ccc3scnc3c2)nn1CC(F)(F)F` is 32000 nM; for `O=C(c1cnn(-c2ccccc2)n1)N1CCCC(n2ccnc2)C1` (centres undefined) it is > 40000 nM (inactive); for `CC(C)(C)C(O)(CCc1ccc(Cl)cc1)Cn1cncn1` (centres undefined) it is > 40000 nM (inactive).
For `O=C(c1cccc(Nc2ncc(-c3ccc4c(c3)OCO4)cn2)c1)N1CCSC1` the value was 13000 nM; for `NS(=O)(=O)c1ccc(CNC(=O)c2ccc([N+](=O)[O-])s2)cc1`, 250 nM.
On to `CC(CNS(=O)(=O)c1ccc(OC(F)F)cc1)c1ccc(NC(=O)c2ccncc2)cc1` (centres undefined), for which the IC50 was 7900 nM.
For `CC1=NN(C(=O)CCn2cnc([N+](=O)[O-])n2)C(O)(C(F)(F)F)C1` (centres undefined) the value was > 40000 nM (inactive); for `Clc1ccc(OCCN2CCCCC2c2cccnc2)c(Cl)c1` (centres undefined), 32000 nM; for `CC(C)Oc1ccc(C(=O)Nc2ccc(N3CCOCC3)c(Cl)c2)cc1`, 13000 nM.
For `COc1ncc(-c2ccc3nccc(-c4ccncc4)c3c2)cc1NS(C)(=O)=O` the value was 320 nM; for `Cc1cccc(N2CCCN(Cc3c[nH]c4ccccc34)CC2)n1`, 13000 nM.
Take `O=C(CN1CCN(c2ccccn2)CC1)Nc1cc(S(=O)(=O)N2CCCCCC2)ccc1Cl`: the IC50 was 13000 nM.
The figure for `CN(C)CCOc1ccc(N2CCN(S(=O)(=O)c3ccc(Cl)cc3)CC2)cc1` is 20000 nM; for `O=C1CSC(c2cccnc2)N1c1ccc(Cl)cc1Cl` (centres undefined) it is > 40000 nM (inactive); for `Cc1cc2ncn(-c3ccc([N+](=O)[O-])cc3C#N)c2cc1C` it is 20000 nM.
With `COc1ccc(NS(=O)(=O)c2cc(NC(=O)c3ccc([N+](=O)[O-])s3)ccc2OC)cc1`, the IC50 was 50 nM.
For `Cn1ccnc1-c1nc(NCc2ccccc2Cl)cc(C2CC2)n1` the value was 2000 nM; for `O=C(NCCc1nc(-c2ccc(F)c(F)c2)n[nH]1)C1CCCCC1`, 500 nM.
For `NC(=O)c1cc(NC(=O)c2ccccc2COc2ccccc2)ccc1Cl` the value was 16000 nM; for `Cc1ccc(Nc2nc(-c3ccccn3)cc(N3CCCC(O)C3)n2)cc1` (centres undefined), 3200 nM.
The figure for `c1ccc(CNc2cccc3ccncc23)cc1` is 25000 nM; for `CC(C)(C)Nc1nc(-c2ccccn2)nc2ccccc12` it is 6300 nM.
In the case of `CC(C)(C)C(=O)Nc1cc(C2CC2)nn1-c1nc2c(c(=O)[nH]1)CCCC2`, the half-maximal inhibitory concentration (IC50) is 160 nM.
For `COc1cnc2ccc(=O)n(CCN3CCC(NC(=O)Cc4ccc(Cl)c(Cl)c4)CC3)c2c1` the value was 250 nM.
For `CC1CCCCN1C(=O)NCCc1coc(-c2ccc(F)cc2)n1` (centres undefined) the value was 130 nM; for `CC(C)c1nn(-c2nc(N)nc(-c3ccccn3)n2)c(N)c1C1CCCCC1`, 7900 nM.
For `N#Cc1ccc(S(=O)(=O)N2CCC3(CCN(c4ccccc4)C3=O)CC2)cc1` the value was > 40000 nM (inactive); for `COC(=O)c1ccc(-c2cnc3ccc(NCc4ccccn4)nn23)cc1`, 630 nM; for `COc1ccc2ncc(F)c(CCN3CC[C@@H](NC(=O)c4cc5c(s4)CCC5)[C@@H](O)C3)c2n1`, 100 nM.
In the case of `Cn1cc(CN2CCN(c3ccc4c(c3)CCN(C(=O)[C@H]3C[C@@H]3c3ccccc3)CC4)CC2)cn1`, the IC50 is 25000 nM.
As for `O=C(NCc1nnc2n1CCCCC2)c1csc(-c2ccccc2)n1`, the IC50 was 320 nM.
The figure for `CCOc1ccc(N(C)S(=O)(=O)c2ccc3[nH]cc(C(=O)NC4CCCC4)c(=O)c3c2)cc1` is 250 nM.
The figure for `Cc1c(C(=O)NCCCCn2ccnc2)oc2c(C)cccc12` is 20000 nM.
The figure for `O=C(COc1ccccc1)Nc1ccccc1C(=O)Nc1nccs1` is 400 nM; for `CCOc1ccc(CC(=O)N2c3ccccc3CC2C(=O)NC)cc1` (centres undefined) it is 500 nM; for `C[C@@H](Oc1cc(-n2cnc3ccc(O[C@H]4CCNC4)cc32)sc1C(N)=O)c1ccccc1Cl` it is 250 nM.
Regarding `Cc1ccc2c(c1)-c1onc(C(=O)N3CCCCC3c3cccnc3)c1CO2` (centres undefined), the half-inhibitory concentration (IC50) was 40000 nM.
The figure for `Clc1ccc(Sc2cnccc2N2CCOCC2)cc1` is 25000 nM; for `FC(F)(F)c1cc(C2CCCN(Cc3c[nH]c4ccccc34)C2)nc2ncnn12` (centres undefined) it is > 40000 nM (inactive).
For `Cc1ccc(C)c(CN2C(=O)NC3(CCc4ccccc43)C2=O)c1` (centres undefined) the value was 500 nM.
For `O=[N+]([O-])c1ccc(-c2nnn(-c3ccc(Cl)cc3)n2)o1` the value was 320 nM; for `O=C(Cc1ccccc1)Nc1ccccc1C(=O)Nc1nccs1`, 250 nM.
In the case of `CN(Cc1cc2ccccc2s1)c1ncc2c(N)nc(N)nc2n1`, the half-inhibitory concentration (IC50) was 32000 nM.
`O=C(N1CCc2ccccc2CC1)C1(C(=O)N2CCC(n3c(=O)[nH]c4ncccc43)CC2)CC1`: the IC50 was > 40000 nM (inactive).
Regarding `N#Cc1cnc(Nc2cccc(CCN3CCOCC3)c2)nc1Nc1ccccc1C(N)=O`, the IC50 is 63 nM.
The figure for `COc1ccc(-c2nc3ncccc3o2)cc1NC(=O)c1cccs1` is 1300 nM; for `COc1ccc(C2CC(c3ccccc3Cl)=NN2C(=O)CNC(=O)C2CCCC2)cc1` (centres undefined) it is 630 nM; for `CCc1ccccc1[C@@H](C)NC(=O)c1cnc2c(cnn2CC)c1NC1CCN(C(N)=O)CC1` it is 250 nM.
For `O=C(NC1CCN(C2Cc3ccc(NS(=O)(=O)c4cc(F)cc(F)c4)cc3C2)CC1)C1CC1` (centres undefined) the value was 1000 nM; for `COc1ccc(S(=O)(=O)Nc2ccc(CN3CCN(C(=O)c4cccc(C#N)c4)CC3)cc2)cc1`, 400 nM; for `O=C(Nc1cccc(F)c1)N1CCC(Oc2cccc(-c3cccnc3)c2)CC1`, 25000 nM.
Regarding `CCN(C)Cc1ccc(N2CCC(NS(=O)(=O)c3ccc4c(c3)CCO4)CC2)nc1`, the IC50 was > 40000 nM (inactive).
For `CCCn1c(NC(=O)CCn2cc(Br)cn2)nc2ccccc21` the value was 7900 nM; for `CNC(=O)C1Cc2ccccc2N1C(=O)Cc1ccc(F)cc1` (centres undefined), 250 nM.
The figure for `O=C(c1cc2cc(Cl)ccc2[nH]1)N1CCCCC1c1cccnc1` (centres undefined) is 25000 nM; for `CCCCc1cc(Nc2cc(C3CCC3)[nH]n2)nc(N2CCC2C(N)=O)n1` (centres undefined) it is 130 nM; for `Cc1cc(NC(=O)c2ccc([N+](=O)[O-])s2)ccc1Br` it is 320 nM.
The figure for `COc1cc(F)c2ncc(F)c(CCN3CC[C@H](NCc4cc5c(cn4)OCS5)[C@@H](O)C3)c2c1` is 250 nM; for `COc1cc(OC)cc(C(NS(=O)(=O)c2ccc(Cl)c(C(F)(F)F)c2)c2nccn2C)c1` (centres undefined) it is 7900 nM.
For `Cc1ccc(NC(=O)c2ccc(Cl)c(NC(=O)c3ccc([N+](=O)[O-])cc3)c2)cc1`, the IC50 is 7900 nM.
The figure for `O=C(Nc1ccc(-c2nc3ccccc3c(=O)[nH]2)cc1)c1cccs1` is 250 nM; for `Cc1ccc(NC(=O)C(C)n2nc([N+](=O)[O-])c(Br)c2C)cc1Cl` (centres undefined) it is 16000 nM; for `c1ccc2sc(Nc3nc4ncccc4[nH]3)nc2c1` it is 1000 nM.
For `CC(C)CC(=O)Nc1cc(C2CC2)nn1-c1nc2c(c(=O)[nH]1)CCCC2` the value was 200 nM; for `Cc1cc2cc(CNc3ccc4c(c3)OCO4)c(=O)n(CCO)c2cc1C`, 25000 nM.
For `CN(Cc1nc2ccc(C(=O)NCC3CCCCC3)cc2[nH]1)C1CCCc2cccnc21` (centres undefined) the value was 790 nM; for `COc1ccc(NS(=O)(=O)c2cccc(NC(=O)c3cc(F)cc(F)c3)c2)cc1`, 630 nM; for `CC(C)COC(=O)Nc1ccc(N2CCC(CNS(=O)(=O)c3ccccc3)CC2)c(F)c1`, 2500 nM.
On to `COc1ccc(Cl)cc1CC(=O)Nc1n[nH]c(-c2ccccn2)n1`, for which the IC50 is 16000 nM.
For `Cc1cc(NC(=O)C2CC2)ccc1OC1CCN(Cc2ccco2)CC1` the value was 130 nM.
As for `Cc1cc(Nc2cc(C3CC3)[nH]n2)nc(N2CCCC2)n1`, the IC50 was 50 nM.
For `Cc1cc(NC(=O)CC2CCCCC2)n(-c2nc3c(c(=O)[nH]2)CCC3)n1` the value was 200 nM.
As for `CC(c1ccc2c(c1)CCCC2)N(C)c1ncc2c(N)nc(N)nc2n1` (centres undefined), the half-maximal inhibitory concentration (IC50) is 16000 nM.
For `NC(=O)c1ccsc1NC(=O)c1ccc([N+](=O)[O-])s1` the value was 200 nM; for `CC(=O)Nc1ccc(Nc2nccc(-c3cnn4ncccc34)n2)cc1C(F)(F)F`, 32 nM; for `CN(C)S(=O)(=O)c1cccc(CSc2nnc(-c3ccc4c(c3)OCO4)o2)c1`, 32000 nM.
The figure for `CC(C)C[C@H](NC(=O)c1csc(-c2cccs2)n1)C(=O)NC1(C#N)CC1` is 160 nM; for `COc1ccc(Nc2nc(-c3ccccn3)cs2)c(OC)c1` it is 20000 nM; for `COc1ccc(Nc2nccc(N(C)c3n[nH]c4c(F)cccc34)n2)cc1S(C)(=O)=O` it is 6300 nM.
For `O=C(Nc1ccc(S(=O)(=O)N2CCCC2)cc1)c1ccc([N+](=O)[O-])s1` the value was 160 nM.
With `CN(Cc1nnnn1C1CCN(Cc2ccc(-n3ccnc3)cc2)CC1)c1ccc(F)cc1F`, the IC50 is > 40000 nM (inactive).
For `CC(=O)Nc1ccc(-c2csc(NC(=O)c3ccc([N+](=O)[O-])s3)n2)cc1` the value was 25 nM; for `Cc1nc2c(-c3nc(-c4ccc(N)cc4)n[nH]3)cccn2c1C`, 13000 nM.
In the case of `Cc1ccc2onc(Nc3ccnc(Nc4cccc(S(C)(=O)=O)c4)n3)c2c1`, the IC50 is 6300 nM.
For `O=c1[nH]c(NCCCNCc2cc(Br)cc(Br)c2)nc2ccsc12` the value was 100 nM.
The figure for `Cc1ccc(C)c(-n2nnnc2Sc2nc([N+](=O)[O-])nn2C)c1` is 13000 nM.
The figure for `Cc1cc(C)n(-c2nc(NC(C)C)nc(NC(C)(C)C)n2)n1` is 20000 nM.
On to `Cc1nc(C(=O)Nc2ccc3c(c2)OCO3)nn1-c1ccc(F)cc1`, for which the IC50 was > 40000 nM (inactive).
Turning to `O=C(CN(Cc1ccccn1)Cc1ccccn1)NCc1ccc2c(c1)OCO2`, the IC50 was 6300 nM.
For `COc1ccc(S(=O)(=O)Nc2ccccc2OC)cc1NC(=O)CCCc1c[nH]c2ccccc12` the value was 13000 nM.
